In data set [1] the test system is S. aureus. The experiment in a line: Growth in carbon-starved M9 media (O.D.). It is filed as cell-based. The note with it: M9 media supplemented at 100 mM. The method, then: (§1) FIGS. 5(A-G). Effect of xylitol on growth of different airway pathogens. A, B and C. Growth of P. aeruginosa (A), S. aureus, (B), and coagulase-negative Staphylococcus (C) were measured as O. D. M9 media alone is indicated by open triangle. Xylitol (closed circle), or succinate, mannitol, or sucrose (open circles), were added to M9 media at 100 mM as indicated. D. Nasal swabs were collected and cultured for 3 days in Lauria-Bertani media (open circles), in minimal M9 media (open squares), or in M9 media supplemented with 100 mM xylitol (closed circles). E, F and G. P. aeruginosa (E), S. aureus (F), and coagulase-negative Staphylococcus (G) were cultured in Lauria-Bertani media alone (open triangles), Lauria-Bertani media with 100 mM xylitol (closed circles), and Lauria-Bertani media containing tobramycin or levofloxacin (open circles).
To test the effect of xylitol on growth of different airway pathogens in a carbon-starved media, P. aeruginosa, S. aureus, and coagulase-negative Staphylococcus were grown overnight in Lauria-Bertani medium. The bacteria were then centrifuged and resuspended in M9 media containing either 100 mM succinate, mannitol, or sucrose, respectively, and grown overnight at 37° C. […] The optical density (O.D.) was measured after 0, 1, 2, and 4 hours at 600 nm on a Beckman DU640 Spectrophotometer (Schaumburg, Ill.). […]

The next data set deals with non-CF epithelia. It is filed as in vitro ADME, human. The method, then: FIGS. 1(A-C). Permeability of xylitol added to the apical surface of non-CF epithelia. Xylitol (138 mM in 60 μl) was added to the apical surface of differentiated airway epithelia at time zero. Apical liquid was removed and volume determined at times indicated. Xylitol was measured by NMR. Data are mean±SEM; n=4. Some SEM bars are hidden by symbols.
Airway epithelial cells were isolated from tracheal and bronchial tissue. Cells were seeded onto collagen-coated, semi-permeable membranes (0.6 cm^2 Millicel-HA; Millipore, Bedford, Mass.) and grown at the air-liquid interface as previously described (Smith, J. J., S. M. Travis, E. P. Greenberg, and M. J. Welsh. 1996. Cystic fibrosis airway epithelia fail to kill bacteria because of abnormal airway surface fluid. Cell. 85:229-236; and erratum 287(222); Yamaya, M., W. E. Finbeiner, S. Y. Chun, and J. H. Widdicombe. 1992. Differentiated structure and function of cultures from human tracheal epithelium. Am. J. Physiol. 262:L713-L724; Zabner, J., B. G. Zeiher, E. Friedman, and M. J. Welsh. 1996. […] All epithelia were evaluated with scanning electron microscopy for the development of a ciliated apical surface.
Proton nuclear magnetic resonance spectroscopy was used to measure the xylitol concentration in the fluid on the apical surface. […] Concentrations were then determined by comparing the measured peak integral to a standard curve for xylitol. […]

Another data set concerns CF epithelia. The experiment in a line: Bacteria deposited into liquid covering CF epithelia. Type of data set: cell-based, human. Conditions: bacteria grew on untreated or saline-treated epithelia.
The conditions of data set [2]: incorporated in chewing gum; cited from earlier work.
The test system of a further data set is P. aeruginosa. The experiment in a line: Antibiotic effect in Lauria-Bertani (rich) media. It is filed as cell-based. The note with it: Lauria-Bertani media with 100 mM xylitol. Here is the method:
as §1
(§2) To test the effect of xylitol on growth of different airway pathogens in a carbon-starved media, P. aeruginosa, S. aureus, and coagulase-negative Staphylococcus were grown overnight in Lauria-Bertani medium. The bacteria were then centrifuged and resuspended in M9 media containing either 100 mM succinate, mannitol, or sucrose, respectively, and grown overnight at 37° C. The bacteria were centrifuged and resuspended in M9 media alone. M9 media containing 100 mM xylitol, or 100 mM of the indicated metabolizable sugar, as positive control. The optical density (O.D.) was measured after 0, 1, 2, and 4 hours at 600 nm on a Beckman DU640 Spectrophotometer (Schaumburg, Ill.). To test the antibiotic effect of xylitol, P. aeruginosa, S. aureus, and coagulase-negative Staphylococcus were grown overnight in Lauria-Bertani medium. The bacteria were then centrifuged and resuspended in Lauria-Bertani media with and without 100 mM xylitol. As a positive control, antibiotics with specific activity to each of the bacteria were added to the media (40 μg/ml tobramycin or 40 μg/ml levofloxacin).

Data set [3] has as its system coagulase-negative Staphylococcus. The experiment in a line: Antibiotic effect in Lauria-Bertani (rich) media. It is filed as cell-based. Conditions: Lauria-Bertani media with 100 mM xylitol. Here is the method:
as §1, §2

Data set [4] deals with S. aureus. The data set can be described thus: Antibiotic effect in Lauria-Bertani (rich) media. It is filed as cell-based. The note with it: Lauria-Bertani media with 100 mM xylitol. Here is the method: as §1, §2

The text below walks through data of US6716819B2, “Use of xylitol to reduce ionic strength and activate endogenous antimicrobials for prevention and treatment of infections” (University of Iowa Research Foundation, priority 2000, dated 2004).

`OC[C@@H](O)[C@H](O)[C@@H](O)CO` [xylitol]: the “growth of S. aureus” value with S. aureus [1] is recorded as “failed to support growth”. Moreover, the xylitol permeability result in the data set on non-CF epithelia is “not high”. Further, the “time after which approximately half the applied xylitol would diffuse to the basolateral surface” value with non-CF epithelia (human, 138 mM) was ~11 h. In addition, the “fate of bacteria deposited into xylitol-containing liquid covering CF epithelia” value in the data set on CF epithelia is given as “the bacteria were killed”. In data set [2], the “effect on dental caries” value is “prevent dental caries”. Moreover, in the data set with P. aeruginosa, the “inhibition of growth of P. aeruginosa” value is “did not inhibit the growth”. Moreover, the “inhibition of growth of coagulase-negative Staphylococcus” value in data set [3] was “did not inhibit the growth”. Besides, the “inhibition of growth of S. aureus” value with S. aureus [4] is on record as “did not inhibit the growth”.
